Laboratory results as given in publication PMC12573178, “Substrate-Guided Development of HDAC11-Selective Inhibitors Featuring α‑Amino Amide Zinc-Binding Groups” (ACS Omega, 2025).

Test system: HEK293 cells
Assay: Metabolic labeling with Alk-14, CuAAC with Cy3-azide, in-gel fluorescence (global fatty-acylation level)
Assay type: cell-based
Conditions: Alk-14 25 μM, 31 20 μM, 24 h

## CCCCCCCCCCCCSC[C@@H](N)C(=O)NCCCC[C@@H]1NC(=O)[C@H](CCC(N)=O)NC1=O [Compound 31]
  In-gel fluorescence signal (protein fatty acylation): moderately increased the fluorescence signal
